The results in this text go back to the NIST ThermoML archive (doi:10.1016/j.jct.2018.11.011).

Numbers after ± are expanded uncertainties.

A short description of the series: Molar enthalpy of transition or fusion. The following applies: Crystal; DSC.

On to `O=C([O][Sb]([c]1ccccc1)([c]1ccccc1)([c]1ccccc1)[c]1ccccc1)c1ccccc1` [tetraphenylantimony benzoate], for which the “Molar enthalpy of transition or fusion” value is 6.31 ± 0.263 kcal/mol.
